# Counter-ions that a name gives are not always drawn.
# Tested on: MTT (mouse pheochromocytoma)
# Experiment: IC50 of cell viability (ATP content)
# Details: (24 or 48 h)
# Method in brief: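 The IC50 was fitted with a four-parameter logistic equation to normalised CellTiter-Glo ATP luminescence from MTT mouse pheochromocytoma cells. These cells, in white 1536-well plates, had been treated for 24 or 48 hrs with library compounds at 8 final concentrations between 0.5 nM and 46 µM, and luminescence was read after 15 minutes. Positive-control wells served as 100% and DMSO wells as 0%.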
row,Compound,IC50 of cell viability [µM]
1,C=C1C[C@@H]2[C@H]3CCC4=CC(=O)C=C[C@]4(C)[C@@]3(F)[C@@H](O)C[C@]2(C)[C@]1(O)C(=O)COC(C)=O [Fluprednidene acetate],> 46
2,C[C@]12C=CC(=O)C=C1[C@@H](F)C[C@@H]1[C@@H]2[C@@H](O)C[C@@]2(C)[C@H]1CC[C@]2(O)C(=O)CO [Fluprednisolone],> 46
3,O=C(O)CCC/C=C\C[C@@H]1[C@@H](/C=C/[C@@H](O)COc2cccc(C(F)(F)F)c2)[C@H](O)C[C@@H]1O [Fluprostenol sodium],> 46
4,CC1(C)O[C@@H]2C[C@@H]3[C@@H]4C[C@@H](F)\C5=C\C(=O)CC[C@]5(C)[C@H]4[C@H](O)C[C@@]3(C)[C@]2(O1)C(=O)CO [Flurandrenolide],> 46
5,CC(=O)O[C@H](C)OC(=O)[C@@H](C)c1ccc(-c2ccccc2)c(F)c1 [Flurbiprofen Axetil],> 46
6,C[C@@H](C(=O)O)c1ccc(-c2ccccc2)c(F)c1 [Flurbiprofen],> 46
7,NP(N)(=O)NC(=O)c1ccc(F)cc1 [Flurofamide],> 46
8,CC(=O)O[C@]1(C(C)=O)CCC2C3CCC4=CC(=O)CCC4(C)C3(F)C(O)CC21C (stereo partly specified) [Flurogestone acetate],> 46
9,CC(C)C(=O)Nc1ccc([N+](=O)[O-])c(C(F)(F)F)c1 [Flutamide],> 46
10,CCC(=O)O[C@]1([C@@H](C)C[C@H]2[C@H]3C[C@@H](F)\C4=C\C(=O)\C=C/[C@@]4(C)[C@@]3(F)[C@@H](O)C[C@]12C)C(=O)SCF [Fluticasone propionate],> 46
11,CC(C)Oc1cccc(NC(=O)c2ccccc2C(F)(F)F)c1 [Flutolanil],> 46
12,C[N+]1(CCF)[C@@H]2CC[C@@H]1CC(OC(=O)C(O)(c1ccccc1)c1ccccc1)C2 (stereo partly specified) [Flutropium],> 46
13,CC(C)n1c(/C=C/[C@H](O)C[C@H](O)CC(=O)[O-])c(-c2ccc(F)cc2)c2ccccc21 [Fluvastatina],> 46
14,Nc1nc(O)c2nc(CNc3ccc(C(=O)N[C@@H](CCC(=O)O)C(=O)O)cc3)cnc2n1 [Folic acid],> 46
15,CN(CC(=O)[NH+]1CCOCC1)Cc1c(Cl)cccc1NC(=O)c1ccccc1 [Fominoben hydrochloride],> 46
16,CC(Cc1ccccc1)NC=O (stereo unspecified) [Formetorex],> 46
17,COc1ccc(C[C@H](C)NC[C@@H](O)c2ccc(O)c(NC=O)c2)cc1 [Formoterol hemifumarate],> 46
18,NNC(=O)CP(=O)(c1ccccc1)c1ccccc1 [Fosenazida],> 46
19,O=P(O)(O)OC(Cn1cncn1)(Cn1cncn1)c1ccc(F)cc1F [Fosfluconazole],> 46
20,C1CN(P2(N3CC3)=NP(N3CC3)(N3CC3)=NP(N3CC3)(N3CC3)=N2)CCO1 (stereo unspecified) [Fotretamine],> 46
21,COc1ccc2nc(NC(=O)Nc3ccccc3)sc2c1 [Frentizole],> 46

row,Compound,IC50 of cell viability [µM]
1,CN[C@@H]1CCc2[nH]c3ccc(C(N)=O)cc3c2C1.O.O=C(O)CCC(=O)O [Frovatriptan Succinate Monohydrate],> 46
2,Cc1cccc(C)c1NC(=O)c1ccccc1C(=O)O [Ftaxilida],> 46
3,CN1CCN(CCC(=O)N2c3ccccc3Sc3ccc(C(F)(F)F)cc32)CC1 [Ftormetazine],> 46
4,O=C(CCN1CCN(CCO)CC1)N1c2ccccc2Sc2ccc(C(F)(F)F)cc21 [Ftorpropazine],> 46
5,C[C@]12CC[C@@H]3c4ccc(O)cc4C[C@@H](CCCCCCCCC[S+]([O-])CCCC(F)(F)C(F)(F)F)C3[C@@H]1CC[C@@H]2O (stereo partly specified) [Fulvestrant],> 46
6,CCCCCC(O)C1C(=O)OC(C)C(O)C=CC=CC=CC=CC=C(C)C(O)C(O)C(O)CC(O)CC(O)CC(O)CC(O)CC1O (stereo unspecified) [Fungichromin],> 46
7,O=C1O[C@H](CN2CCOCC2)CN1/N=C\c1ccc([N+](=O)[O-])o1 [Furaltadone hydrochloride],> 46
8,O=C1OCCN1/N=C/c1ccc([N+](=O)[O-])o1 [Furazolidone],> 46
9,O=Cc1ccco1 [Furfural],> 46
10,N[S+](=O)([O-])c1cc(C(=O)O)c(NCc2ccco2)cc1Cl [Furosemide],> 46
11,C/C(=C(\CCO)SSCC1CCCO1)N(C=O)Cc1cnc(C)nc1N (stereo unspecified) [Fursultiamine],> 46
12,CCCCc1ccc(C(=O)O)nc1 [Fusaric acid],> 46
13,CC(=O)O[C@@H]1C[C@]2(C)[C@H](C[C@@H](O)[C@H]3[C@@]4(C)CC[C@@H](O)[C@@H](C)[C@@H]4CC[C@@]32C)/C1=C(\CCC=C(C)C)C(=O)[O-].[Na+] [Fusidic acid sodium salt],> 46
14,NCCCC(=O)O [GABA],> 46
15,COC1=CC=C2CN(C)CC[C@@]34\C=C/[C@H](O)C[C@@H]3OC1=C24 [GALANTHAMINE],> 46
16,CC[N+](CC)(CC)CCOc1cccc(OCC[N+](CC)(CC)CC)c1OCC[N+](CC)(CC)CC [GALLAMINE],> 46
17,COc1cc(/C=C/C(=O)O[C@H]2CC[C@]34C[C@]35CC[C@]3(C)[C@@H]([C@H](C)CCC=C(C)C)CC[C@@]3(C)C5CCC4C2(C)C)ccc1O (stereo partly specified) [GAMMA ORYZANOL],> 46
18,CC(=O)[C@H]1CC[C@H]2[C@@H]3CC[C@H]4C[C@](C)(O)CC[C@]4(C)[C@H]3CC[C@]12C [GANAXOLONUM],> 46
19,COC1=C(N2CCNC(C)C2)C(=CC3=C1N(\C=C(C(O)=O)/C3=O)C4CC4)F (stereo unspecified) [GATIFLOXACIN],> 46
20,NC/1=N/C(=O)N(/C=C1)[C@@H]2O[C@H](CO)[C@@H](O)C2(F)F [GEMCITABINE HYDROCHLORIDE],> 46
21,CO/N=C1\CN(c2nc3c(cc2F)c(=O)c(C(=O)O)cn3C2CC2)CC1CN.C[S+](=O)([O-])O (stereo unspecified) [GEMIFLOXACIN MESYLATE],> 46

row,Compound,IC50 of cell viability [µM]
1,CC(C)=CCC/C(C)=C/CO [GERANIOL],> 46
2,C#C[C@]1(O)CC[C@H]2[C@@H]3CCC4=CC(=O)CCC4=C3C=C[C@@]21CC [GESTRINONE],> 46
3,Oc1cc(O)c(Cl)cn1 [GIMERACIL],> 46
4,C\C1=C\C(=O)OC2=CC(=CC=C12)OCC#C [GIPARMENUM],> 46
5,Cc1cnc(C(=O)NCCc2ccc([S+](=O)([O-])NC(=O)NC3CCCCC3)cc2)cn1 [GLIPIZIDE],> 46
6,"O=C(O)[C@@H](O)[C@@H](O)[C@H](O)[C@H](O)CO [GLUCONIC ACID, BARIUM SALT]",> 46
7,O=C1OC(CO)C(O)C(O)C1O (stereo unspecified) [GLUCONOLACTONE],> 46
8,Cl.N[C@@H]1C(O)OC(CO)C(O)C1O (stereo partly specified) [GLUCOSAMINE HYDROCHLORIDE],> 46
9,NC(=O)[C@H]1O[C@@H](O)[C@H](O)[C@@H](O)[C@@H]1O [GLUCURONAMIDE],> 46
10,NC(CCC(=O)N[C@@H](CS)C(=O)NCC(=O)O)C(=O)O (stereo partly specified) [GLUTATHIONE],> 46
11,COc1ccc(Cl)cc1C(=O)NCCc1ccc([S+](=O)([O-])NC(=O)NC2CCCCC2)cc1 [GLYBURIDE],> 46
12,CC(C)(C)c1nnc(N[S+](=O)([O-])c2ccccc2)s1 [GLYBUZOLE],> 46
13,OCC(O)CO [GLYCERIN],> 46
14,CCCCCCCCCCCC(=O)OCC(O)CO (stereo unspecified) [GLYCEROL MONOLAURATE],> 46
15,CCCCCCCCCCCCCCCCCC(=O)OCC(O)CO (stereo unspecified) [GLYCERYL MONOSTEARATE],> 46
16,O=C(NN1CCCC1)N[S+](=O)([O-])c1ccc(Cl)cc1 [GLYCLOPYRAMIDE],> 46
17,"CC1(C(=O)O)CCC2(C)CCC3(C)C(=CC(=O)[C@@H]4C5(C)CC[C@H](O[C@H]6O[C@H](C(=O)O)C(O)C(O)[C@H]6O[C@@H]6O[C@H](C(=O)O)C(O)C(O)C6O)C(C)(C)[C@@H]5CCC43C)[C@@H]2C1 (stereo partly specified) [GLYCYRRHIZIC ACID, MONOSODIUM SALT]",> 46
18,Cc1ccc(S(=O)(=O)NC(=O)NC2CCCCCCC2)cc1 [GLYOCTAMIDUM],> 46
19,COc1ccc([S+](=O)([O-])Nc2nnc(CC(C)C)s2)cc1 [GLYSOBUZOLUM],> 46

# Reference: the supplement of paper PMC3974653
